According to ChEMBL document CHEMBL4610067, “Molecular Networking Reveals Serpentinine-Related Bisindole Alkaloids from Picralima nitida, a Previously Well-Investigated Species” (J Nat Prod, 2020):
pIC50: −log10 of the molar value.

Legend:
[1] = system: MRC5; assay: Growth inhibition of human MRC5 cells after 72 hrs by resazurin dye based spectrophotometric method assay; type: cell-based; conditions: MRC5, 72 h
[2] = system: Plasmodium falciparum; assay: Antimalarial activity against chloroquine-resistant Plasmodium falciparum FcB1/Columbia infected in human erythrocytes assessed as reduction in [3H]-hypoxanthine incorporation pretreated for 24 hrs followed by [3H]-hypoxanthine addition measured after 24 hrs by liquid scintillation counting method; type: functional, organism-based

Compound | pIC50 [1] | pIC50 [2]
C/C=C1/CN2CCc3c([nH]c4ccc(O)cc34)[C@@H]2C[C@@H]1CCO | < 4.30 | 4.00
C/C=C1/C[n+]2cc(C[C@H](C(=O)OC)[C@H]3C[C@H]4c5[nH]c6ccccc6c5CCN4C/C3=C/C)c3c([nH]c4ccccc43)c2C[C@@H]1CCO | < 4.30 | 5.02
C/C=C1/CN2CCc3c([nH]c4ccccc34)[C@@H]2C[C@@H]1[C@H](Cc1c[n+]2c(c3[nH]c4ccccc4c13)C[C@@H]1C(C(=O)OC)=CO[C@@H](C)[C@@H]1C2)C(=O)O | < 4.30 | 5.28
C/C=C1/C[n+]2ccc3c([nH]c4ccccc43)c2C[C@@H]1CCO | < 4.30 | 4.71
C/C=C1/CN2CCc3c([nH]c4ccccc34)[C@@H]2C[C@@H]1[C@H](Cc1c[n+]2c(c3[nH]c4ccccc4c13)C[C@@H]1C(C(=O)OC)=CO[C@@H](C)[C@@H]1C2)C(=O)OC | < 4.30 | 5.59
COC(=O)CCc1c[n+]2c(c3[nH]c4ccccc4c13)C[C@@H]1C(C(=O)OC)=CO[C@@H](C)[C@@H]1C2 |  | 5.52
C/C=C1/CN2CCc3c([nH]c4ccccc34)[C@@H]2C[C@@H]1[C@H](Cc1c[n+]2c(c3[nH]c4ccccc4c13)C[C@H](CCO)[C@@H](CC)C2)C(=O)OC | < 4.30 | 5.06
